Assay results: patent publication US4839350A, “Cephalosporin compounds and the production thereof” (Meiji Seika Kaisha, Ltd., priority 1984, dated 1989)

Test: Recovery in urine after oral administration to mice (paper-disc assay)
Type: in vivo, mice of ICR-strain (male)
Settings: 0.5 mg per mouse, suspension in 0.2% CMC, urine to 4 hours, molar % as free carboxylic acid form, average of three mice, E. coli K-12 8236 bioassay, read-out: Rate of recovery of the test compound in urine
Excerpt: The new cephalosporin compound of this invention as orally administered is easily absorbed through the intestines by a living animal and maintains its antibacterial activity to a substantial extent in the body of the animal until it is excreted in the urine of the animal, and this may be observed by determining the remaining amount of the cephalosporin compound of this invention which can be recovered in the urine without receiving a substantial degradation of the compound in vivo. Some tests were made to evaluate the amount of the cephalosporin compound of this invention which can be recovered as the antibacterially active compound from the urine after it was orally given to mice.
To mice of ICR-strain (male, 4-weeks-aged, three in each group) was orally administered the compound under test identified below, at a dosage of the compound of 0.5 mg per mouse. The compound under test was given as a suspension of the test compound in a solution of 0.2% carboxymethylcellulose (CMC) in water. By the end of 4 hours after the administration of the test compound, all the amounts of the urine excreted by the treated mice were collected together, and the total quantity of the cephalosporin compound of this invention (as the free carboxylic acid form) in the urine was determined according to a paper-disc assay method using Escherichia coli K-12 8236 as the assaying strain. […]

Row | SMILES | dose excreted at 4 h [%]
1 | CO/N=C(\C(=O)NC1C(=O)N2C(C(=O)OCOC(=O)C(C)(C)C)=C(/C=C\c3cncs3)CSC12)c1csc(N)n1 (stereo not drawn) [Example 38, 7-[2-methoxyimino-2-(2-aminothiazol-4-yl)acetamido]-3-[2-(thiazol-5-yl)vinyl]-3-cephem-4-carboxylic acid (syn-isomer, cis-isomer) pivaloyloxymethyl ester] | 20
2 | CO/N=C(\C(=O)NC1C(=O)N2C(C(=O)OCOC(=O)C(C)(C)C)=C(/C=C\c3scnc3Cl)CSC12)c1csc(N)n1 (stereo not drawn) [Example 22, 7-[2-methoxyimino-2-(2-aminothiazol-4-yl)acetamido]-3-[2-(4-chlorothiazol-5-yl)vinyl]-3-cephem-4-carboxylic acid (syn-isomer, cis-isomer) pivaloyloxymethyl ester] | 24
